The values that follow come from ChEMBL document CHEMBL1629472, “2-Acetylpyridine thiosemicarbazones: cytotoxic activity in nanomolar doses against malignant gliomas” (Eur J Med Chem, 2010).

Data set [1] is described as follows: Cytotoxicity against rat RT2 cells expressing wild type p53 after 48 hrs by MTT assay. Type of data set: functional, cell-based. As to conditions: RT2, 48 h.
A short description of data set [2]: Cytotoxicity against erythrocytes assessed as hemolysis. Type of data set: cell-based. As to conditions: erythrocyte.
A short description of data set [3]: Cytotoxicity against human T98 cells expressing p53 mutant after 48 hrs by MTT assay. It is filed as functional, cell-based. As to conditions: T98, 48 h. (Formazan colour is commonly taken as a measure of viable cells.)

SMILES strings stand for the structures.

As a reminder, the IC50 is the concentration needed to halve the response being measured. Lower therefore signals greater potency in that assay. On to `C/C(=N\NC(=S)Nc1ccc(Cl)cc1)c1ccccn1`, for which the IC50 in data set [1] was found to be 3.7 nM; in data set [3], 5.9 nM. Also, the Hemolytic concentration in data set [2] is over 1 mM.

For the molecule `C/C(=N\NC(=S)Nc1ccccc1Cl)c1ccccn1`, the IC50 in data set [1] is 1.4 nM; in data set [3] it was 1.1 nM. Also, in data set [2], the Hemolytic concentration was over 1 mM.

For `C/C(=N\NC(=S)Nc1cccc(Cl)c1)c1ccccn1`, the values for the IC50 in data set [1] and in data set [3] were 9 nM and 1 nM, respectively. Also, in data set [2], the Hemolytic concentration is over 1 mM.

With `C/C(=N\NC(=S)Nc1ccccc1C)c1ccccn1`, the IC50 was 14 nM in data set [1] and 34 nM in data set [3]. For the same molecule, in data set [2], the Hemolytic concentration is over 1 mM.

For `C/C(=N\NC(=S)Nc1cccc(C)c1)c1ccccn1`, the IC50 in data set [1] turned out to be 24 nM; in data set [3] it was 50 nM. Besides, the Hemolytic concentration in data set [2] was over 1 mM.

As for `C/C(=N\NC(=S)Nc1ccc(C)cc1)c1ccccn1`, the IC50 in data set [1] was determined as 17 nM; in data set [3] it was 37 nM. For the same molecule, the Hemolytic concentration in data set [2] is over 1 mM.

As for `C/C(=N\NC(=S)Nc1ccccc1)c1ccccn1`, the IC50 in data set [1] was determined as 1.4 nM; in data set [3], 6.8 nM. In addition, the Hemolytic concentration in data set [2] was over 1 mM.
